Reference: patent US20230072860A1, “ISOXAZOLINE OXIME FORMATE COMPOUND, PREPARATION METHOD THEREFOR, HERBICIDAL COMPOSITION AND USE THEREOF” (QINGDAO KINGAGROOT CHEMICAL COMPOUND CO., LTD., priority 2020, published 2023)

What was measured:
Test in all cases: Experiment on weeding effect in post-emergence stage
Type in all cases: in vivo
Conditions in all cases: dose 15 g a.i./ha, fresh weight control rate level
Veronica didyma Tenore = test system: Veronica didyma Tenore
In short: (§1)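 Potted plants treated post-emergence at the 2-3 leaf stage, 2 weeks after sowing, by spray tower. Compounds dissolved in acetone with Tween 80 plus 1.5 liter/ha methyl oleate emulsifiable concentrate, diluted in water, applied at 500, 250, 125, 60, 15 g a.i./ha. Weeding effect scored after 3 weeks in greenhouse; three replicates averaged.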

Amaranthus retroflexus = test system: Amaranthus retroflexus
In short: as §1

Galium aparine = test system: Galium aparine
In short: as §1

Leptochloa chinensis = test system: Leptochloa chinensis
In short: as §1

Digitaria sanguinalis = test system: Digitaria sanguinalis
In short: as §1

Abutilon theophrasti = test system: Abutilon theophrasti
In short: as §1

Setaria viridis = test system: Setaria viridis
In short: as §1

Echinochloa crusgalli = test system: Echinochloa crusgalli
In short: as §1

Eleusine indica = test system: Eleusine indica
In short: as §1

SMILES: Cn1c(=S)n(C)c(=S)n(-c2cc(C3=NOC(C)(C(=O)ON=C4CCCC4)C3)c(Cl)cc2F)c1=O (stereo not drawn) [Compound 74]
- weeding effect in post-emergence stage, Veronica didyma Tenore (level) (Veronica didyma Tenore): 5 (Level 5: growth control rate is above 85%)
- weeding effect in post-emergence stage, Amaranthus retroflexus (level) (Amaranthus retroflexus): 5 (Level 5: growth control rate is above 85%)
- weeding effect in post-emergence stage, Galium aparine (level) (Galium aparine): 5 (Level 5: growth control rate is above 85%)
- weeding effect in post-emergence stage, Leptochloa chinensis (level) (Leptochloa chinensis): 5 (Level 5: growth control rate is above 85%)
- weeding effect in post-emergence stage, Digitaria sanguinalis (level) (Digitaria sanguinalis): 5 (Level 5: growth control rate is above 85%)
- weeding effect in post-emergence stage, Abutilon theophrasti (level) (Abutilon theophrasti): 5 (Level 5: growth control rate is above 85%)
- weeding effect in post-emergence stage, Setaria viridis (level) (Setaria viridis): 5 (Level 5: growth control rate is above 85%)
- weeding effect in post-emergence stage, Echinochloa crusgalli (level) (Echinochloa crusgalli): 5 (Level 5: growth control rate is above 85%)
- weeding effect in post-emergence stage, Eleusine indica (level) (Eleusine indica): 5 (Level 5: growth control rate is above 85%)

SMILES: CCOC(=O)C(C)=NOC(=O)C1(C)CC(c2cc(-n3c(=O)n(C)c(=S)n(C)c3=S)c(F)cc2Cl)=NO1 (stereo not drawn) [Compound 75]
- weeding effect in post-emergence stage, Veronica didyma Tenore (level) (Veronica didyma Tenore): 5 (Level 5: growth control rate is above 85%)
- weeding effect in post-emergence stage, Amaranthus retroflexus (level) (Amaranthus retroflexus): 5 (Level 5: growth control rate is above 85%)
- weeding effect in post-emergence stage, Galium aparine (level) (Galium aparine): 5 (Level 5: growth control rate is above 85%)
- weeding effect in post-emergence stage, Leptochloa chinensis (level) (Leptochloa chinensis): 5 (Level 5: growth control rate is above 85%)
- weeding effect in post-emergence stage, Digitaria sanguinalis (level) (Digitaria sanguinalis): 5 (Level 5: growth control rate is above 85%)
- weeding effect in post-emergence stage, Abutilon theophrasti (level) (Abutilon theophrasti): 5 (Level 5: growth control rate is above 85%)
- weeding effect in post-emergence stage, Setaria viridis (level) (Setaria viridis): 5 (Level 5: growth control rate is above 85%)
- weeding effect in post-emergence stage, Echinochloa crusgalli (level) (Echinochloa crusgalli): 5 (Level 5: growth control rate is above 85%)
- weeding effect in post-emergence stage, Eleusine indica (level) (Eleusine indica): 5 (Level 5: growth control rate is above 85%)

SMILES: CCOC(=O)C(C)=NOC(=O)C1(C)CC(c2cc(-n3c(=O)n(C)c(=S)n(C)c3=O)c(F)cc2Cl)=NO1 (stereo not drawn) [Compound 123]
- weeding effect in post-emergence stage, Veronica didyma Tenore (level) (Veronica didyma Tenore): 5 (Level 5: growth control rate is above 85%)
- weeding effect in post-emergence stage, Amaranthus retroflexus (level) (Amaranthus retroflexus): 5 (Level 5: growth control rate is above 85%)
- weeding effect in post-emergence stage, Galium aparine (level) (Galium aparine): 5 (Level 5: growth control rate is above 85%)
- weeding effect in post-emergence stage, Leptochloa chinensis (level) (Leptochloa chinensis): 5 (Level 5: growth control rate is above 85%)
- weeding effect in post-emergence stage, Digitaria sanguinalis (level) (Digitaria sanguinalis): 5 (Level 5: growth control rate is above 85%)
- weeding effect in post-emergence stage, Abutilon theophrasti (level) (Abutilon theophrasti): 5 (Level 5: growth control rate is above 85%)
- weeding effect in post-emergence stage, Setaria viridis (level) (Setaria viridis): 5 (Level 5: growth control rate is above 85%)
- weeding effect in post-emergence stage, Echinochloa crusgalli (level) (Echinochloa crusgalli): 5 (Level 5: growth control rate is above 85%)
- weeding effect in post-emergence stage, Eleusine indica (level) (Eleusine indica): 5 (Level 5: growth control rate is above 85%)

SMILES: C/C(=N/OC(=O)C1(C)CC(c2cc(-n3c(=O)n(C)c(=S)n(C)c3=O)c(F)cc2Cl)=NO1)c1ccccc1 (stereo not drawn) [Compound 124]
- weeding effect in post-emergence stage, Veronica didyma Tenore (level) (Veronica didyma Tenore): 5 (Level 5: growth control rate is above 85%)
- weeding effect in post-emergence stage, Amaranthus retroflexus (level) (Amaranthus retroflexus): 5 (Level 5: growth control rate is above 85%)
- weeding effect in post-emergence stage, Galium aparine (level) (Galium aparine): 5 (Level 5: growth control rate is above 85%)
- weeding effect in post-emergence stage, Leptochloa chinensis (level) (Leptochloa chinensis): 5 (Level 5: growth control rate is above 85%)
- weeding effect in post-emergence stage, Digitaria sanguinalis (level) (Digitaria sanguinalis): 5 (Level 5: growth control rate is above 85%)
- weeding effect in post-emergence stage, Abutilon theophrasti (level) (Abutilon theophrasti): 5 (Level 5: growth control rate is above 85%)
- weeding effect in post-emergence stage, Setaria viridis (level) (Setaria viridis): 5 (Level 5: growth control rate is above 85%)
- weeding effect in post-emergence stage, Echinochloa crusgalli (level) (Echinochloa crusgalli): 5 (Level 5: growth control rate is above 85%)
- weeding effect in post-emergence stage, Eleusine indica (level) (Eleusine indica): 5 (Level 5: growth control rate is above 85%)

SMILES: Cn1c(=S)n(C)c(=O)n(-c2cc(C3=NOC(C)(C(=O)ON=C(c4ccccc4)c4ccccc4)C3)c(Cl)cc2F)c1=O (stereo not drawn) [Compound 140]
- weeding effect in post-emergence stage, Veronica didyma Tenore (level) (Veronica didyma Tenore): 5 (Level 5: growth control rate is above 85%)
- weeding effect in post-emergence stage, Amaranthus retroflexus (level) (Amaranthus retroflexus): 5 (Level 5: growth control rate is above 85%)
- weeding effect in post-emergence stage, Galium aparine (level) (Galium aparine): 5 (Level 5: growth control rate is above 85%)
- weeding effect in post-emergence stage, Leptochloa chinensis (level) (Leptochloa chinensis): 5 (Level 5: growth control rate is above 85%)
- weeding effect in post-emergence stage, Digitaria sanguinalis (level) (Digitaria sanguinalis): 5 (Level 5: growth control rate is above 85%)
- weeding effect in post-emergence stage, Abutilon theophrasti (level) (Abutilon theophrasti): 5 (Level 5: growth control rate is above 85%)
- weeding effect in post-emergence stage, Setaria viridis (level) (Setaria viridis): 5 (Level 5: growth control rate is above 85%)
- weeding effect in post-emergence stage, Echinochloa crusgalli (level) (Echinochloa crusgalli): 5 (Level 5: growth control rate is above 85%)
- weeding effect in post-emergence stage, Eleusine indica (level) (Eleusine indica): 5 (Level 5: growth control rate is above 85%)

SMILES: Cn1c(=S)n(C)c(=O)n(-c2cc(C3=NOC(C)(C(=O)ON=C4CCCC4)C3)c(Cl)cc2F)c1=O (stereo not drawn) [Compound 146]
- weeding effect in post-emergence stage, Veronica didyma Tenore (level) (Veronica didyma Tenore): 5 (Level 5: growth control rate is above 85%)
- weeding effect in post-emergence stage, Amaranthus retroflexus (level) (Amaranthus retroflexus): 5 (Level 5: growth control rate is above 85%)
- weeding effect in post-emergence stage, Galium aparine (level) (Galium aparine): 5 (Level 5: growth control rate is above 85%)
- weeding effect in post-emergence stage, Leptochloa chinensis (level) (Leptochloa chinensis): 5 (Level 5: growth control rate is above 85%)
- weeding effect in post-emergence stage, Digitaria sanguinalis (level) (Digitaria sanguinalis): 5 (Level 5: growth control rate is above 85%)
- weeding effect in post-emergence stage, Abutilon theophrasti (level) (Abutilon theophrasti): 5 (Level 5: growth control rate is above 85%)
- weeding effect in post-emergence stage, Setaria viridis (level) (Setaria viridis): 5 (Level 5: growth control rate is above 85%)
- weeding effect in post-emergence stage, Echinochloa crusgalli (level) (Echinochloa crusgalli): 5 (Level 5: growth control rate is above 85%)
- weeding effect in post-emergence stage, Eleusine indica (level) (Eleusine indica): 5 (Level 5: growth control rate is above 85%)

SMILES: CC(C)=NOC(=O)C1(C)CC(c2cc(-n3c(=O)cc(C(F)(F)F)n(C)c3=O)c(F)cc2Cl)=NO1 (stereo not drawn) [Compound 160]
- weeding effect in post-emergence stage, Veronica didyma Tenore (level) (Veronica didyma Tenore): 5 (Level 5: growth control rate is above 85%)
- weeding effect in post-emergence stage, Amaranthus retroflexus (level) (Amaranthus retroflexus): 5 (Level 5: growth control rate is above 85%)
- weeding effect in post-emergence stage, Galium aparine (level) (Galium aparine): 5 (Level 5: growth control rate is above 85%)
- weeding effect in post-emergence stage, Leptochloa chinensis (level) (Leptochloa chinensis): 5 (Level 5: growth control rate is above 85%)
- weeding effect in post-emergence stage, Digitaria sanguinalis (level) (Digitaria sanguinalis): 5 (Level 5: growth control rate is above 85%)
- weeding effect in post-emergence stage, Abutilon theophrasti (level) (Abutilon theophrasti): 5 (Level 5: growth control rate is above 85%)
- weeding effect in post-emergence stage, Setaria viridis (level) (Setaria viridis): 5 (Level 5: growth control rate is above 85%)
- weeding effect in post-emergence stage, Echinochloa crusgalli (level) (Echinochloa crusgalli): 5 (Level 5: growth control rate is above 85%)
- weeding effect in post-emergence stage, Eleusine indica (level) (Eleusine indica): 5 (Level 5: growth control rate is above 85%)

SMILES: CC(C)=NOC(=O)C1(C)CC(c2nc(-n3c(=O)cc(C(F)(F)F)n(C)c3=O)c(F)cc2Cl)=NO1 (stereo not drawn) [Compound 170]
- weeding effect in post-emergence stage, Veronica didyma Tenore (level) (Veronica didyma Tenore): 5 (Level 5: growth control rate is above 85%)
- weeding effect in post-emergence stage, Amaranthus retroflexus (level) (Amaranthus retroflexus): 5 (Level 5: growth control rate is above 85%)
- weeding effect in post-emergence stage, Galium aparine (level) (Galium aparine): 5 (Level 5: growth control rate is above 85%)
- weeding effect in post-emergence stage, Leptochloa chinensis (level) (Leptochloa chinensis): 5 (Level 5: growth control rate is above 85%)
- weeding effect in post-emergence stage, Digitaria sanguinalis (level) (Digitaria sanguinalis): 5 (Level 5: growth control rate is above 85%)
- weeding effect in post-emergence stage, Abutilon theophrasti (level) (Abutilon theophrasti): 5 (Level 5: growth control rate is above 85%)
- weeding effect in post-emergence stage, Setaria viridis (level) (Setaria viridis): 5 (Level 5: growth control rate is above 85%)
- weeding effect in post-emergence stage, Echinochloa crusgalli (level) (Echinochloa crusgalli): 5 (Level 5: growth control rate is above 85%)
- weeding effect in post-emergence stage, Eleusine indica (level) (Eleusine indica): 5 (Level 5: growth control rate is above 85%)

SMILES: CC(C)=NOC(=O)C1(C)CC(c2cc(-n3c(=S)cc(C(F)(F)F)n(C)c3=O)c(F)cc2Cl)=NO1 (stereo not drawn) [Compound 197]
- weeding effect in post-emergence stage, Veronica didyma Tenore (level) (Veronica didyma Tenore): 5 (Level 5: growth control rate is above 85%)
- weeding effect in post-emergence stage, Amaranthus retroflexus (level) (Amaranthus retroflexus): 5 (Level 5: growth control rate is above 85%)
- weeding effect in post-emergence stage, Galium aparine (level) (Galium aparine): 5 (Level 5: growth control rate is above 85%)
- weeding effect in post-emergence stage, Leptochloa chinensis (level) (Leptochloa chinensis): 5 (Level 5: growth control rate is above 85%)
- weeding effect in post-emergence stage, Digitaria sanguinalis (level) (Digitaria sanguinalis): 5 (Level 5: growth control rate is above 85%)
- weeding effect in post-emergence stage, Abutilon theophrasti (level) (Abutilon theophrasti): 5 (Level 5: growth control rate is above 85%)
- weeding effect in post-emergence stage, Setaria viridis (level) (Setaria viridis): 5 (Level 5: growth control rate is above 85%)
- weeding effect in post-emergence stage, Echinochloa crusgalli (level) (Echinochloa crusgalli): 5 (Level 5: growth control rate is above 85%)
- weeding effect in post-emergence stage, Eleusine indica (level) (Eleusine indica): 5 (Level 5: growth control rate is above 85%)

SMILES: CC(C)=NOC(=O)C1(C)CC(c2cc(-n3c(=O)cc(C(F)(F)F)n(C)c3=S)c(F)cc2Cl)=NO1 (stereo not drawn) [Compound 218]
- weeding effect in post-emergence stage, Veronica didyma Tenore (level) (Veronica didyma Tenore): 5 (Level 5: growth control rate is above 85%)
- weeding effect in post-emergence stage, Amaranthus retroflexus (level) (Amaranthus retroflexus): 5 (Level 5: growth control rate is above 85%)
- weeding effect in post-emergence stage, Galium aparine (level) (Galium aparine): 5 (Level 5: growth control rate is above 85%)
- weeding effect in post-emergence stage, Leptochloa chinensis (level) (Leptochloa chinensis): 5 (Level 5: growth control rate is above 85%)
- weeding effect in post-emergence stage, Digitaria sanguinalis (level) (Digitaria sanguinalis): 5 (Level 5: growth control rate is above 85%)
- weeding effect in post-emergence stage, Abutilon theophrasti (level) (Abutilon theophrasti): 5 (Level 5: growth control rate is above 85%)
- weeding effect in post-emergence stage, Setaria viridis (level) (Setaria viridis): 5 (Level 5: growth control rate is above 85%)
- weeding effect in post-emergence stage, Echinochloa crusgalli (level) (Echinochloa crusgalli): 5 (Level 5: growth control rate is above 85%)
- weeding effect in post-emergence stage, Eleusine indica (level) (Eleusine indica): 5 (Level 5: growth control rate is above 85%)
